Results from US20260242372A1, “NOVEL IMIDAZOPYRIDINE AND PYRAZOLOPYRIDINE SULFONAMIDE DERIVATIVES” (Hoffmann-La Roche Inc., priority 2022, published 2026).

What follows are molecules tested against human GPR17 short isoform (Homo sapiens, UniProt Q13304) (assay: GPR17 cAMP assay (hGPR17 cAMP, TR-FRET, antagonist mode)). Conditions: CHO-K1 cells stably expressing human GPR17 short isoform; EC80 of agonist MDL29,951; forskolin 15 μM; 30 min at room temperature.
Sequence of human GPR17 short isoform (Q13304 29-367): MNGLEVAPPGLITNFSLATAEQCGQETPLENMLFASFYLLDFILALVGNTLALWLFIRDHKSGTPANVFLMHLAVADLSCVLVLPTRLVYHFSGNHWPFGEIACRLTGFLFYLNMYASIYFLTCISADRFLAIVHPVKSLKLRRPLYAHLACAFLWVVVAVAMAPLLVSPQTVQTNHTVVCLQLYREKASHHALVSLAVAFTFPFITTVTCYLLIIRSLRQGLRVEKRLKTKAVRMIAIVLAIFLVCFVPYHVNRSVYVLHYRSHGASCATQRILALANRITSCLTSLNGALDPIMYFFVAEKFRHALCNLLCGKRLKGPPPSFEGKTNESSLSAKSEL
Format: cell-based
Protocol: CHO-K1 cells stably expressing vector containing untagged human GPR17 short isoform (Roche) were cultured at 37° C./5% CO2 in DMEM (Dulbecco's Modified Eagle Medium): F-12 (1:1) supplemented with 10% foetal bovine serum and 400 μg/ml Geneticin.
Changes in intracellular cyclic adenosine monophosphate (cAMP) levels were quantified using the Nano-TRF Detection Assay kit (Roche Diagnostics, Cat. No. 05214386001). This assay allows for direct cAMP quantification in a homogeneous solution. CAMP is detected based on time-resolved fluorescence energy transfer (TR-FRET) and competitive binding of ruthenylated cAMP and endogenous cAMP to an anti-cAMP monoclonal antibody labeled with AlexaFluor-700. The Ruthenium complex serves as the FRET donor and transfers energy to AlexaFluor-700. The FRET signal is inversely proportional to the CAMP concentration.
CHO-GPR17S cells were detached with Accutase and resuspended in assay buffer consisting of Hank's Balanced Salt Solution (HBSS), 10 mM HEPES (4-(2-hydroxyethyl) piperazine-1-ethanesulfonic acid solution) and 0.1% bovine serum albumin (pH 7.4). The cells were seeded in black 384-well plates (Corning) at a density of 10′000 cells/20 μl assay buffer until the addition of compounds.
Test antagonist compounds were serially diluted in dimethyl sulfoxide (DMSO) and spotted in 384-well plates. The compounds were then diluted in HBSS buffer supplemented with an EC80 concentration of MDL29,951 (3-(2-Carboxy-4,6-dichloroindol-3-yl) propionic acid) (GPR17 agonist) plus 3-Isobutyl-1-methylxanthine (IBMX) (0.5 mM final concentration) and added to the cells at room temperature. Forskolin (15 μM final concentration) was added 5 minutes after the test compounds and the cells were incubated at room temperature for 30 minutes. The assay was stopped by adding cAMP detection mix (containing detergents for cell lysis) for 90 minutes at room temperature.
Cellular cAMP was measured using a Paradigm reader (Molecular Devices). The raw data was used to calculate the FRET signal based on the assay's P-factor as per cAMP kit instructions. The data was normalized to the maximal activity of a reference antagonist and dose response curves were fitted to the percent activity of the test compounds using a sigmoidal dose response model (Genedata Screener).
COc1nc(OCC(F)F)c(F)cc1NS(=O)(=O)c1cnc2c(C#N)c(C3CC3)ccn12 [Example 33, 8-cyano-7-cyclopropyl-N-[6-(2,2-difluoroethoxy)-5-fluoro-2-methoxy-3-pyridyl]imidazo[1,2-a]pyridine-3-sulfonamide] was tested, and the IC50 was 42 nM.
Work on N#CCc1cc(F)c(NS(=O)(=O)c2cnc3cc(Br)ccn23)cc1F [Example 34, 7-bromo-N-[4-(cyanomethyl)-2,5-difluoro-phenyl]imidazo[1,2-a]pyridine-3-sulfonamide] yielded an IC50 of 45 nM.
With COc1ccn2c(S(=O)(=O)Nc3nc(OC)c(CC#N)cc3F)cnc2c1 [Example 35, N-[5-(cyanomethyl)-3-fluoro-6-methoxy-2-pyridyl]-7-methoxy-imidazo[1,2-a]pyridine-3-sulfonamide] the IC50 was 46 nM.
Work on COc1nc(NS(=O)(=O)c2cnc3nc(C4CC4)ccn23)c(F)cc1CC(F)F [Example 36, 7-cyclopropyl-N-[5-(2,2-difluoroethyl)-3-fluoro-6-methoxy-2-pyridyl]imidazo[1,2-a]pyrimidine-3-sulfonamide] yielded an IC50 of 52 nM.
COc1ccn2c(S(=O)(=O)Nc3cc(F)c(OCC(F)F)nc3OC)cnc2n1 [Example 37, N-[6-(2,2-difluoroethoxy)-5-fluoro-2-methoxy-3-pyridyl]-7-methoxy-imidazo[1,2-a]pyrimidine-3-sulfonamide] showed an IC50 of 56 nM.
With O=S(=O)(Nc1cc(F)c(OC(F)F)nc1OC(F)F)c1cnc2cc(Cl)ccn12 [Example 38, N-[2,6-bis(difluoromethoxy)-5-fluoro-3-pyridyl]-7-chloro-imidazo[1,2-a]pyridine-3-sulfonamide] the IC50 was 57 nM.
COc1nc(NS(=O)(=O)c2cnc3cc(Cl)ccn23)c(F)cc1OC(F)F [Example 40, 7-chloro-N-[5-(difluoromethoxy)-3-fluoro-6-methoxy-2-pyridyl]imidazo[1,2-a]pyridine-3-sulfonamide] gave an IC50 of 64 nM.
Molecule COc1nc(OCC(F)F)c(F)cc1NS(=O)(=O)c1cnc2n1CCC(C(F)(F)F)C2 (stereo not shown) [Example 41, N-[6-(2,2-difluoroethoxy)-5-fluoro-2-methoxy-3-pyridyl]-7-(trifluoromethyl)-5,6,7,8-tetrahydroimidazo[1,2-a]pyridine-3-sulfonamide] has an IC50 of 66 nM.
Work on COc1nc(OCC(F)F)c(F)cc1NS(=O)(=O)c1cnc2nc(Cl)ccn12 [Example 42, 7-chloro-N-[6-(2,2-difluoroethoxy)-5-fluoro-2-methoxy-3-pyridyl]imidazo[1,2-a]pyrimidine-3-sulfonamide] yielded an IC50 of 72 nM.
COc1nc(OC(F)F)c(F)cc1NS(=O)(=O)c1cnc2c(C#N)c(C)ccn12 [Example 43, 8-cyano-N-[6-(difluoromethoxy)-5-fluoro-2-methoxy-3-pyridyl]-7-methyl-imidazo[1,2-a]pyridine-3-sulfonamide] was tested, and the IC50 was 75 nM.
Molecule COc1nc(NS(=O)(=O)c2cnc3cc(Cl)ccn23)c(F)cc1C1CC1 [Example 44, 7-chloro-N-(5-cyclopropyl-3-fluoro-6-methoxy-2-pyridyl)imidazo[1,2-a]pyridine-3-sulfonamide] has an IC50 of 76 nM.
Molecule COc1nc(OCC(F)F)c(F)cc1NS(=O)(=O)c1cnc2n1CCC(C)(C)C2 [Example 45, N-[6-(2,2-difluoroethoxy)-5-fluoro-2-methoxy-3-pyridyl]-7,7-dimethyl-6,8-dihydro-5H-imidazo[1,2-a]pyridine-3-sulfonamide] has an IC50 of 76 nM.
In the case of COc1nc(NS(=O)(=O)c2cnc3cc(Br)ccn23)nc(OC)c1Br [Example 46, 7-bromo-N-(5-bromo-4,6-dimethoxy-pyrimidin-2-yl)imidazo[1,2-a]pyridine-3-sulfonamide], the IC50 is reported as 82 nM.
Molecule COc1nc(NS(=O)(=O)c2cnc3cc(Br)ccn23)c(F)cc1OCCF [Example 47, 7-bromo-N-[3-fluoro-5-(2-fluoroethoxy)-6-methoxy-2-pyridyl]imidazo[1,2-a]pyridine-3-sulfonamide] has an IC50 of 83 nM.
With COc1nc(OCC(F)F)c(F)cc1NS(=O)(=O)c1cnc2nc(C)ccn12 [Example 48, N-[6-(2,2-difluoroethoxy)-5-fluoro-2-methoxy-3-pyridyl]-7-methyl-imidazo[1,2-a]pyrimidine-3-sulfonamide] the IC50 was 85 nM.
COc1nc(NS(=O)(=O)c2cnc3nc(C4CC4)ccn23)c(F)cc1OCC(F)F [Example 49, 7-cyclopropyl-N-[5-(2,2-difluoroethoxy)-3-fluoro-6-methoxy-2-pyridyl]imidazo[1,2-a]pyrimidine-3-sulfonamide] was tested, and the IC50 was 89 nM.
COc1nc(OCC(F)F)c(F)cc1NS(=O)(=O)c1cnc2n1CCCC2C (stereo not shown) [Example 50, N-[6-(2,2-difluoroethoxy)-5-fluoro-2-methoxy-3-pyridyl]-8-methyl-5,6,7,8-tetrahydroimidazo[1,2-a]pyridine-3-sulfonamide] showed an IC50 of 98 nM.
COc1nc(NS(=O)(=O)c2cnc3cc(Cl)ccn23)c(F)cc1OCC(F)F [Example 51, 7-chloro-N-[5-(2,2-difluoroethoxy)-3-fluoro-6-methoxy-2-pyridyl]imidazo[1,2-a]pyridine-3-sulfonamide] showed an IC50 of 99 nM.
COc1nc(OCC(F)F)c(F)cc1NS(=O)(=O)c1cnc2c(C#N)c(Cl)ccn12 [Example 52, 7-chloro-8-cyano-N-[6-(2,2-difluoroethoxy)-5-fluoro-2-methoxy-3-pyridyl]imidazo[1,2-a]pyridine-3-sulfonamide] gave an IC50 of 99 nM.
For COc1nc(OCC(F)F)c(F)cc1NS(=O)(=O)c1cnc2n1CCC(C)O2 (stereo not shown) [Example 53, N-[6-(2,2-difluoroethoxy)-5-fluoro-2-methoxy-3-pyridyl]-7-methyl-6,7-dihydro-5H-imidazo[2,1-b][1,3]oxazine-3-sulfonamide], the IC50 was 101 nM.
COc1nc(NS(=O)(=O)c2cnc3cc(C)ccn23)nc(OC)c1C [Example 54, N-(4,6-dimethoxy-5-methyl-pyrimidin-2-yl)-7-methyl-imidazo[1,2-a]pyridine-3-sulfonamide] showed an IC50 of 112 nM.
Work on COc1ccn2c(S(=O)(=O)Nc3cc(F)c(CC#N)cc3F)cnc2c1 [Example 55, N-[4-(cyanomethyl)-2,5-difluoro-phenyl]-7-methoxy-imidazo[1,2-a]pyridine-3-sulfonamide] yielded an IC50 of 116 nM.
In the case of O=S(=O)(Nc1cc(F)c(OC(F)F)nc1OC(F)F)c1cnc2nc(C3CC3)ccn12 [Example 56, N-[2,6-bis(difluoromethoxy)-5-fluoro-3-pyridyl]-7-cyclopropyl-imidazo[1,2-a]pyrimidine-3-sulfonamide], the IC50 is reported as 132 nM.
Molecule COc1c(C)ccn2c(S(=O)(=O)Nc3cc(F)c(Br)cc3F)cnc12 [Example 57, N-(4-bromo-2,5-difluoro-phenyl)-8-methoxy-7-methyl-imidazo[1,2-a]pyridine-3-sulfonamide] has an IC50 of 137 nM.
COc1nc(OCC(F)F)c(F)cc1NS(=O)(=O)c1cnc2c(=O)n(C)ccn12 [Example 58, N-[6-(2,2-difluoroethoxy)-5-fluoro-2-methoxy-3-pyridyl]-8-keto-7-methyl-imidazo[1,2-a]pyrazine-3-sulfonamide] gave an IC50 of 174 nM.
Molecule COc1nc(OCC(F)F)c(F)cc1NS(=O)(=O)c1cnc2cc(C#N)ccn12 [Example 59, 7-cyano-N-[6-(2,2-difluoroethoxy)-5-fluoro-2-methoxy-3-pyridyl]imidazo[1,2-a]pyridine-3-sulfonamide] has an IC50 of 176 nM.
Molecule COc1ccn2c(S(=O)(=O)Nc3cc(F)c(OCC(F)F)nc3OC)cnc2c1C#N [Example 60, 8-cyano-N-[6-(2,2-difluoroethoxy)-5-fluoro-2-methoxy-3-pyridyl]-7-methoxy-imidazo[1,2-a]pyridine-3-sulfonamide] has an IC50 of 179 nM.
With COc1c(Cl)ccn2c(S(=O)(=O)Nc3cc(F)c(CC#N)cc3F)cnc12 [Example 61, 7-chloro-N-[4-(cyanomethyl)-2,5-difluoro-phenyl]-8-methoxy-imidazo[1,2-a]pyridine-3-sulfonamide] the IC50 was 181 nM.
For COc1nc(OCC(F)F)c(F)cc1NS(=O)(=O)c1cnc2n1CCC(OC)C2 (stereo not shown) [Example 62, N-[6-(2,2-difluoroethoxy)-5-fluoro-2-methoxy-3-pyridyl]-7-methoxy-5,6,7,8-tetrahydroimidazo[1,2-a]pyridine-3-sulfonamide], the IC50 was 217 nM.
COc1nc(OCC(F)F)c(F)cc1NS(=O)(=O)c1cnc2n1CCCC2 [Example 63, N-[6-(2,2-difluoroethoxy)-5-fluoro-2-methoxy-3-pyridyl]-5,6,7,8-tetrahydroimidazo[1,2-a]pyridine-3-sulfonamide] was tested, and the IC50 was 217 nM.
In the case of N#CCc1cc(F)c(NS(=O)(=O)c2cnc3cc(Cl)ccn23)cc1F [Example 64, 7-chloro-N-(4-(cyanomethyl)-2,5-difluorophenyl)imidazo[1,2-a]pyridine-3-sulfonamide], the IC50 is reported as 251 nM.
